Experiments:
[1] = tested on: Escherichia coli ATCC 25922; assay: MIC assay, antibiotic susceptible reference strain; format: cell-based; details: Escherichia coli, ATCC25922, read-out: Antimicrobial activity (MIC) E. c
Protocol: (§1) Working solutions of the test derivatives were prepared with up to 100% DMSO and stored at −20° C. If necessary, the solutions were heated to 40-80° C. before testing to facilitate complete dissolution. Double-distilled water was used in all dilutions prepared. […] A microdilution susceptibility test was used for MIC determination according to Clinical and Laboratory Standards Institute, “Methods for Dilution Antimicrobial Sisceptibility Tests for Bacteria That Graw Aerobically”, Approved Standard M07-A9, edition 2012, with modifications as described by Igumnova et al (Bioorg Med Chem, 2016, 24 (22), 5884-5894).
(§2) Briefly, the bacterial inoculum was adjusted to approximately 2.5-3×10^4 cells/mL in Mueller-Hinton broth (MHB, Difco Laboratories, USA), and incubated in a ratio of 1:1 with test derivatives in polystyrene 96-well flat-bottom microplates (NUNC, Roskilde, Denmark). Positive growth control (without test derivatives) and negative control (without bacteria) were included. The reference antibiotic was oxytetracycline hydrochloride (Sigma Aldrich, Saint Louis, Mo., USA). The microplates were incubated in an EnVision microplate reader (Perkin-Elmer, Turku, Finland) placed in an incubator set to 35° C. for 48 h. The MIC value was defined as the lowest concentration of derivative resulting in no bacterial growth as determined by OD600 measurement. All derivatives were tested in three parallels.

[2] = tested on: Staphylococcus aureus ATCC 9144; assay: MIC assay, antibiotic susceptible reference strain; format: cell-based; details: Staphylococcus aureus, ATCC9144, read-out: Antimicrobial activity (MIC) S. a
Protocol: as §1, §2

[3] = tested on: Pseudomonas aeruginosa PA01, DSM 19880 (ATCC 15692); assay: MIC assay, antibiotic susceptible reference strain; format: cell-based; details: Pseudomonas aeruginosa, read-out: Antimicrobial activity (MIC) P. a
Protocol: as §1, §2

[4] = tested on: Corynebacterium glutamicum ATCC 13032; assay: MIC assay, antibiotic susceptible reference strain; format: cell-based; details: Corynebacterium glutamicum, ATCC13032, read-out: Antimicrobial activity (MIC) C. g
Protocol: as §1, §2

[5] = tested on: P. aeruginosa 50692520; assay: MIC, multi-resistant clinical isolate; format: cell-based, Pseudomonas aeruginosa; details: for MIC: Pseudomonas aeruginosa, read-out: Antimicrobial activity (MIC); for selectivity index (EC50/MIC): RBC EC50 / MIC
Protocol: as §1, §2
(§3) The MIC was determined as explained above with some exceptions; working solutions of test derivatives were prepared from concentrated DMSO stocks stored at room temperature, the density of the bacterial inoculum was increased 40× to 1-1.2×10^6 cells/mL, enterococci were incubated in Brain Heart Infusion broth (BHIB, Difco Laboratories, USA), the microplates were incubated for 24 h, and the derivatives were tested in four parallels.

[6] = tested on: P. aeruginosa 50692172; assay: MIC, multi-resistant clinical isolate; format: cell-based, Pseudomonas aeruginosa; details: for MIC: Pseudomonas aeruginosa, read-out: Antimicrobial activity (MIC); for selectivity index (EC50/MIC): RBC EC50 / MIC
Protocol: as §1, §2, §3

[7] = tested on: P. aeruginosa K34-7; assay: MIC, multi-resistant clinical isolate; format: cell-based, Pseudomonas aeruginosa; details: for MIC: Pseudomonas aeruginosa, K347, read-out: Antimicrobial activity (MIC); for selectivity index (EC50/MIC): RBC EC50 / MIC, P. aeruginosa K34-7
Protocol: as §1, §2, §3

[8] = tested on: P. aeruginosa K34-73; assay: MIC, multi-resistant clinical isolate; format: cell-based, Pseudomonas aeruginosa; details: for MIC: Pseudomonas aeruginosa, K3473, read-out: Antimicrobial activity (MIC); for selectivity index (EC50/MIC): RBC EC50 / MIC, P. aeruginosa K34-73
Protocol: as §1, §2, §3

[9] = tested on: P. aeruginosa K44-24; assay: MIC, multi-resistant clinical isolate; format: cell-based, Pseudomonas aeruginosa; details: for MIC: Pseudomonas aeruginosa, K4424, read-out: Antimicrobial activity (MIC)
Protocol: as §1, §2, §3

[10] = tested on: K. pneumoniae 50667959; assay: MIC, multi-resistant clinical isolate; format: cell-based, Klebsiella pneumoniae; details: for MIC: Klebsiella pneumoniae, read-out: Antimicrobial activity (MIC)
Protocol: as §1, §2, §3

[11] = tested on: K. pneumoniae 50531633; assay: MIC, multi-resistant clinical isolate; format: cell-based, Klebsiella pneumoniae; details: K. pneumoniae 50531633, resistant to colistin; for MIC: Klebsiella pneumoniae, 24 h, read-out: Antimicrobial activity (MIC); for selectivity index (EC50/MIC): RBC EC50 / MIC
Protocol: as §1, §2, §3

[12] = tested on: K. pneumoniae 50625602; assay: MIC, multi-resistant clinical isolate; format: cell-based, Klebsiella pneumoniae; details: for MIC: Klebsiella pneumoniae, read-out: Antimicrobial activity (MIC)
Protocol: as §1, §2, §3

[13] = tested on: K. pneumoniae K66-45; assay: MIC, multi-resistant clinical isolate; format: cell-based, Klebsiella pneumoniae; details: for MIC: Klebsiella pneumoniae, K6645, read-out: Antimicrobial activity (MIC)
Protocol: as §1, §2, §3

[14] = tested on: E. coli 50579417; assay: MIC, multi-resistant clinical isolate; format: cell-based, Escherichia coli; details: for MIC: Escherichia coli, read-out: Antimicrobial activity (MIC); for selectivity index (EC50/MIC): RBC EC50 / MIC
Protocol: as §1, §2, §3

[15] = tested on: E. coli 50639799; assay: MIC, multi-resistant clinical isolate; format: cell-based, Escherichia coli; details: for MIC: Escherichia coli, read-out: Antimicrobial activity (MIC); for selectivity index (EC50/MIC): RBC EC50 / MIC
Protocol: as §1, §2, §3

[16] = tested on: E. coli 50857972; assay: MIC, multi-resistant clinical isolate; format: cell-based, Escherichia coli; details: for MIC: Escherichia coli, read-out: Antimicrobial activity (MIC); for selectivity index (EC50/MIC): RBC EC50 / MIC
Protocol: as §1, §2, §3

[17] = tested on: E. coli 50739822; assay: MIC, multi-resistant clinical isolate; format: cell-based, Escherichia coli; details: for MIC: Escherichia coli, read-out: Antimicrobial activity (MIC); for selectivity index (EC50/MIC): RBC EC50 / MIC
Protocol: as §1, §2, §3

[18] = tested on: E. coli 50676002; assay: MIC, multi-resistant clinical isolate; format: cell-based, Escherichia coli; details: for MIC: Escherichia coli, 50676002, read-out: Antimicrobial activity (MIC); for selectivity index (EC50/MIC): RBC EC50 / MIC, E. coli 50676002
Protocol: as §1, §2, §3

[19] = tested on: S. aureus NCTC 10442; assay: MIC, multi-resistant clinical isolate; format: cell-based, Staphylococcus aureus; details: for selectivity index (EC50/MIC): RBC EC50 / MIC, S. aureus NCTC 10442; for MIC: Staphylococcus aureus, NCTC10442, read-out: Antimicrobial activity (MIC)
Protocol: as §1, §2, §3

[20] = tested on: S. aureus N315; assay: MIC, multi-resistant clinical isolate; format: cell-based, Staphylococcus aureus; details: for selectivity index (EC50/MIC): RBC EC50 / MIC, S. aureus N315; for MIC: Staphylococcus aureus, N315, read-out: Antimicrobial activity (MIC)
Protocol: as §1, §2, §3

[21] = tested on: S. aureus IHT 99040; assay: MIC, multi-resistant clinical isolate; format: cell-based, Staphylococcus aureus; details: for selectivity index (EC50/MIC): RBC EC50 / MIC; for MIC: Staphylococcus aureus, IHT99040, read-out: Antimicrobial activity (MIC)
Protocol: as §1, §2, §3

[22] = tested on: S. aureus strain 85/2082; assay: MIC, multi-resistant clinical isolate; format: cell-based, Staphylococcus aureus; details: for selectivity index (EC50/MIC): RBC EC50 / MIC, S. aureus strain 85/2082; for MIC: Staphylococcus aureus, 85/2082, read-out: Antimicrobial activity (MIC)
Protocol: as §1, §2, §3

[23] = tested on: S. aureus strain WIS; assay: MIC, multi-resistant clinical isolate; format: cell-based, Staphylococcus aureus; details: for selectivity index (EC50/MIC): RBC EC50 / MIC, S. aureus strain WIS; for MIC: Staphylococcus aureus, read-out: Antimicrobial activity (MIC)
Protocol: as §1, §2, §3

[24] = tested on: S. epidermidis; assay: Anti-biofilm activity (inhibition of biofilm formation); format: cell-based; details: Staphylococcus epidermidis, read-out: Anti-biofilm IC50

CC(C)(C)c1cc(CC2(Cc3cc(C(C)(C)C)cc(C(C)(C)C)c3)C(=O)N(CCCCN)C(=O)N(CCCCN)C2=O)cc(C(C)(C)C)c1 [7(iii), 1,3-bis(4-aminobutyl)-5,5-bis(3,5-di-tert-butylbenzyl)-pyrimidin-2,4,6(1H,3H,5H)-trione]
2 µg/mL: MIC [1] | MIC [19] | MIC [20] | MIC [21] | MIC [22] | MIC [23]
(<2): selectivity index (EC50/MIC) [19] | selectivity index (EC50/MIC) [20] | selectivity index (EC50/MIC) [21] | selectivity index (EC50/MIC) [22] | selectivity index (EC50/MIC) [23]
1 µg/mL: MIC [2] | IC50 [24]
4 µg/mL: MIC [3] | MIC [14] | MIC [15] | MIC [16] | MIC [17]
(<0.5): selectivity index (EC50/MIC) [5] | selectivity index (EC50/MIC) [6] | selectivity index (EC50/MIC) [7] | selectivity index (EC50/MIC) ([9]; RBC EC50 / MIC) | selectivity index (EC50/MIC) ([10]; RBC EC50 / MIC) | selectivity index (EC50/MIC) [11] | selectivity index (EC50/MIC) ([12]; RBC EC50 / MIC) | selectivity index (EC50/MIC) ([13]; RBC EC50 / MIC, K. pneumoniae K66-45)
0.25 µg/mL: MIC [4]
8 µg/mL: MIC [5] | MIC [6] | MIC [7] | MIC [9] | MIC [10] | MIC [11] | MIC [12] | MIC [13] | MIC [18]
16 µg/mL: MIC [8]
(<2.5): selectivity index (EC50/MIC) [8]
(<0.5: selectivity index (EC50/MIC) [18]
(<1): selectivity index (EC50/MIC) [14] | selectivity index (EC50/MIC) [15] | selectivity index (EC50/MIC) [16] | selectivity index (EC50/MIC) [17]

NCCCCN1C(=O)N(CCCCN)C(=O)C(Cc2ccc3ccccc3c2)(Cc2ccc3ccccc3c2)C1=O [7(iv), 1,3-bis(4-aminobutyl)-5,5-bis(naphtalen-2-yl-methyl)-pyrimidin-2,4,6(1H,3H,5H)-trione]
16 µg/mL: MIC [1] | MIC [3] | MIC [14] | MIC [15] | MIC [16] | MIC [17] | MIC [18]
1 µg/mL: MIC [4]
(8): selectivity index (EC50/MIC) [5] | selectivity index (EC50/MIC) [6] | selectivity index (EC50/MIC) [7] | selectivity index (EC50/MIC) [8] | selectivity index (EC50/MIC) [11]
4 µg/mL: IC50 [24]
(15): selectivity index (EC50/MIC) [14] | selectivity index (EC50/MIC) [15] | selectivity index (EC50/MIC) [16] | selectivity index (EC50/MIC) [17] | selectivity index (EC50/MIC) [18]
(30): selectivity index (EC50/MIC) [19] | selectivity index (EC50/MIC) [20] | selectivity index (EC50/MIC) [21] | selectivity index (EC50/MIC) [22] | selectivity index (EC50/MIC) [23]
> 32 µg/mL: MIC [9] | MIC [10] | MIC [12] | MIC [13]
8 µg/mL: MIC [2] | MIC [19] | MIC [20] | MIC [21] | MIC [22] | MIC [23]
32 µg/mL: MIC [5] | MIC [6] | MIC [7] | MIC [8] | MIC [11]

From US11072588B2, “Barbituric acid derivatives comprising cationic and lipophilic groups” (UNIVERSITETET I TROMSØ—NORGES ARKTISKE UNIVERSITET, priority 2017, dated 2021)
